For experiment [1], the target named is T1, Nitric oxide synthase, inducible (Mus musculus, UniProt P29477).
T1 sequence (P29477 whole entry): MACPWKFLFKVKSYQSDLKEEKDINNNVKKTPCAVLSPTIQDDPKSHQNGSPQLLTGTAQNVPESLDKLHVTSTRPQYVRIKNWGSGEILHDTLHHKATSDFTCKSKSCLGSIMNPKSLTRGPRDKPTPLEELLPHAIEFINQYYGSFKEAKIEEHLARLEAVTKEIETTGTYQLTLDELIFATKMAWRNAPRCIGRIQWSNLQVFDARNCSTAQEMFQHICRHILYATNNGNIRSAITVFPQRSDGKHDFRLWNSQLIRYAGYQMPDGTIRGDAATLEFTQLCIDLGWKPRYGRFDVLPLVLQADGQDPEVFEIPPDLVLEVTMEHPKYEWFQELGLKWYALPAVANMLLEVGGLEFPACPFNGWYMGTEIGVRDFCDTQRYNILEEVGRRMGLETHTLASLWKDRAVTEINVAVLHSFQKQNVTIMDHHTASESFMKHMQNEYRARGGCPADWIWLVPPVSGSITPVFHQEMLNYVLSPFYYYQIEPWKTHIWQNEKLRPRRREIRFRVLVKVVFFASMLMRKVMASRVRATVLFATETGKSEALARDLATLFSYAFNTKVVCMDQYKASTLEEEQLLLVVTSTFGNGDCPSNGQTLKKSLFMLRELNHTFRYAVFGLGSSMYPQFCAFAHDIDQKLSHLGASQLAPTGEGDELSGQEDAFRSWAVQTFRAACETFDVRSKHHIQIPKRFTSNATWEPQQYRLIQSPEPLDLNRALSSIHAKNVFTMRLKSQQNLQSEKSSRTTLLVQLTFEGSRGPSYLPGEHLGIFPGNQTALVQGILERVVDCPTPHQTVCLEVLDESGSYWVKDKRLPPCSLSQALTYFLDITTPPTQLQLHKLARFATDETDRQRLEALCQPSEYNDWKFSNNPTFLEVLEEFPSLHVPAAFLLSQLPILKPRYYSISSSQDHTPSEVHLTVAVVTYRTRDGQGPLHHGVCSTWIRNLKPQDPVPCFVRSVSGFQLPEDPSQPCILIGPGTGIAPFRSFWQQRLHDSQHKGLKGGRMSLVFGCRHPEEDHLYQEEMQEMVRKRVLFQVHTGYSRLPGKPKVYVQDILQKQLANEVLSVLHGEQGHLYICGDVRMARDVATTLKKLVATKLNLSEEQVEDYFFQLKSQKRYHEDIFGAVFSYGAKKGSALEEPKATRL
Briefly: Inhibition of mouse recombinant inducible NOS by hemoglobin capture assay.

Experiment [2] can be described thus: Inhibition of bovine recombinant neuronal NOS by hemoglobin capture assay. The arrangement: species or system Bos taurus.
For a further experiment, the target named is T2, Nitric oxide synthase 3 (Bos taurus, UniProt P29473).
T2 sequence (P29473 whole entry): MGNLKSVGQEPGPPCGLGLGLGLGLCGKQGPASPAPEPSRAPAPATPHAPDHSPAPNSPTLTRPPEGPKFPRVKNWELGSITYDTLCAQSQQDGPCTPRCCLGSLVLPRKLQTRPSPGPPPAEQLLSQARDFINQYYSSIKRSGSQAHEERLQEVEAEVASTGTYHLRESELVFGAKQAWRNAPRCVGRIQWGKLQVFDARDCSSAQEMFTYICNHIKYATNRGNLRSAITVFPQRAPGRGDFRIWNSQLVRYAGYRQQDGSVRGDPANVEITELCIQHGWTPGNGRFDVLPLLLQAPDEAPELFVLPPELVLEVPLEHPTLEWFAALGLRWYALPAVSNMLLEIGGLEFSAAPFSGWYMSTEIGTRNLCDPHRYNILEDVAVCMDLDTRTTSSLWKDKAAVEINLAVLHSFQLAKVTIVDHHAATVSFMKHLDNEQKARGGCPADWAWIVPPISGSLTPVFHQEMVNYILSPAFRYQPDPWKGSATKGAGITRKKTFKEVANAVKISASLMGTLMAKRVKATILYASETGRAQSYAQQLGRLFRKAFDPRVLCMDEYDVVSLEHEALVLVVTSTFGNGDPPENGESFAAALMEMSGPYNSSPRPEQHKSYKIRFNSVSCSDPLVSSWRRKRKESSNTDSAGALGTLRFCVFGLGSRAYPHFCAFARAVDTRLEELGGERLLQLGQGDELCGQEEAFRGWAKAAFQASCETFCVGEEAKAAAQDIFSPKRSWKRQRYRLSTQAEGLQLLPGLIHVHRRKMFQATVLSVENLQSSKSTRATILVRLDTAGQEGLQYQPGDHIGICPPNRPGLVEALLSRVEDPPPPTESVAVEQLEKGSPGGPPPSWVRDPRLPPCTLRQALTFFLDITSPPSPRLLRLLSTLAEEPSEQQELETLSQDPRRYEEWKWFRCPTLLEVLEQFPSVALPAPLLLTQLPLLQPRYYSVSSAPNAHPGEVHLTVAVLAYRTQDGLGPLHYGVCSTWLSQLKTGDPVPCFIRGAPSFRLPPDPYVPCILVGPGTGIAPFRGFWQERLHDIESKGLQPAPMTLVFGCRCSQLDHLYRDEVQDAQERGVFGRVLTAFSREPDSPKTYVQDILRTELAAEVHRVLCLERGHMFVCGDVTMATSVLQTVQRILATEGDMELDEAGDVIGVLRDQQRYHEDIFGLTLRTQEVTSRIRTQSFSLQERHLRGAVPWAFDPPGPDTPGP
Description: Inhibition of bovine recombinant endothelial NOS by hemoglobin capture assay.

What is called Ki is a dissociation constant, usually derived from enzyme kinetics or from competition with a known ligand.

Regarding `N=C(NCCC[C@H](N)C(=O)O)N[N+](=O)[O-]` [NITROARGININE], the Ki in experiment [1] was found to be 4.28 µM.
`N=C(NCCC[C@H](N)CN(N)CCN)N[N+](=O)[O-]`: the Ki came out at 37 µM in experiment [1], 0.56 µM in experiment [2] and 103 µM at Nitric oxide synthase 3.
Consider `N=C(NCCC[C@H](N)C(=O)N(O)[C@H]1CN[C@H](C(N)=O)C1)N[N+](=O)[O-]`, for which the Ki came out at 16 µM in experiment [1], 0.31 µM in experiment [2] and 35 µM on Nitric oxide synthase 3.
The corresponding values for `N=C(NCCC[C@H](N)CN(O)CCN)N[N+](=O)[O-]` are 16 µM, 0.12 µM and 73 µM.
As for `NC(=O)[C@@H]1C[C@@H](NC(=O)[C@@H](N)CCC/N=C(\N)N[N+](=O)[O-])CN1`, the Ki in experiment [2] is 0.33 µM.

For the origin of these results see ChEMBL document CHEMBL1147156, “Structure-based design and synthesis of N(omega)-nitro-L-arginine-containing peptidomimetics as selective inhibitors of neuronal nitric oxide synthase. Displacement of the heme structural water” (J Med Chem, 2007).
